Laboratory results taken from US11071317B2, “Sweetness enhancement” (Givaudan, S.A., priority 2015, dated 2021).
Values joined by “and” are separate entries in the source; they are usually repeats but may differ in a detail not shown here. Identical values can stand only once.

Key:
Assay type in all cases: in vivo
[1] = tested on: sweet sensitive panelists; test: Ranking of 4% cellobiose against sucrose standards (1% and 1.5%) in water for overall sweetness intensity, r-index analysis
Excerpt: 20 sweet sensitive panelists ranked 4% cellobiose and sucrose standards (1% and 1.5%) for overall sweetness intensity over 2 replications for a total of 40 observations.

[2] = tested on: sweet sensitive panelists; test: Ranking of 5% sucrose+4% cellobiose against sucrose standards (6%, 7% and 8%) in water for overall sweetness intensity, r-index analysis; conditions: 4% cellobiose in combination with 5% sucrose
Excerpt: 20 sweet sensitive panelists rank ranked 5% sucrose+4% cellobiose and sucrose standards (6%, 7% and 8%) in water for overall sweetness intensity over 2 replications for a total of 40 observations. […] The expected sucrose equivalence (SE) of 4% cellobiose on top of 5% sucrose would be 6.25% (1.25%+5%) but the perceived SE was 7%, showing true sweetness enhancement.

trained panelists = test: Descriptor scoring (overall, upfront, delayed, lingering sweet; 100-point scale) of 80 ppm Reb-A in water with 4% cellobiose
Protocol: The test was carried out by a panel of 14 trained panelists. The panelists scored 4 descriptors (overall sweet, upfront sweet, delayed sweet and lingering sweet) on a 100-point scale over 4 replications for a total of […].

expert tasters [3] = test: Expert taster comparison, model beverage: water, 200 ppm sucralose, 2% cellobiose vs base
Protocol: (§1) Samples were evaluated by a panel of 7 expert tasters. Tasters were asked to compare the base (200 ppm of sucralose) with the model beverage (water, 200 ppm of sucralose, 2% cellobiose) focusing on the overall quality of sweetness, particularly on the enhancement of the upfront sweetness, overall sweetness intensity.

expert tasters [4] = test: Expert taster comparison, model beverage: water, 95 ppm sucralose, 2% cellobiose vs base
Protocol: as §1, with “8” for “7”, “(95” for “(200”, “95” for “200”

expert tasters [5] = test: Expert taster comparison, model beverage: water, 5% sucrose, 0.1% cellobiose vs base
Protocol: as §1, with “9” for “7”, “(water with 5%” for “(200 ppm”, “sucrose)” for “sucralose)”, “5%” for “200 ppm”, “sucrose, and 0.1%” for “sucralose, 2%”

expert tasters [6] = test: Expert taster comparison, model beverage: water, 5% sucrose, 2% cellobiose vs base
Protocol: as §1, with “13” for “7”, “(water with 5%” for “(200 ppm”, “sucrose)” for “sucralose)”, “5%” for “200 ppm”, “sucrose, and” for “sucralose,”

expert tasters [7] = test: Expert taster comparison, model beverage: water, 7% sucrose, 2% cellobiose vs base
Protocol: as §1, with “6” for “7”, “(water with 7%” for “(200 ppm”, “sucrose)” for “sucralose)”, “7%” for “200 ppm”, “sucrose, and” for “sucralose,”

expert tasters [8] = test: Expert taster comparison, lemon lime beverage (water, sodium benzoate, 90 ppm sucralose, citric acid) with 4% cellobiose vs base; conditions: 2000 ppm sodium benzoate, 500 ppm citric acid, 850 ppm lemon lime flavor
Protocol: (§2) Samples were evaluated by a panel of 6 expert tasters. Tasters were asked to compare the base (water, 2000 ppm sodium benzoate, 90 ppm sucralose, 500 ppm citric acid, 850 ppm lemon lime flavor) with the model beverage (water, 2000 ppm sodium benzoate, 90 ppm sucralose, 500 ppm citric acid, 850 ppm lemon lime flavor, 4% cellobiose) focusing on the overall quality of sweetness, particularly on the enhancement of the upfront sweetness, overall sweetness intensity.

expert tasters [9] = test: Expert taster comparison, carbonated lemon lime beverage (sodium benzoate, 90 ppm Sucralose, citric acid) with 4% cellobiose vs base; conditions: carbonated water, 2000 ppm sodium benzoate, 500 ppm citric acid, 850 ppm lemon lime flavor
Protocol: as §2, with “of 7” for “of 6”, “base (carbonated water,” for “base (water,”, “ppm Sucralose,” for “ppm sucralose,”

expert tasters [10] = test: Expert taster comparison, lemon lime beverage (water, sodium benzoate, 180 ppm Reb-A, citric acid) with 4% cellobiose vs base, panel of 7 (Example 11); conditions: 2000 ppm sodium benzoate, 500 ppm citric acid, 850 ppm lemon lime flavor
Protocol: (§3) Samples were evaluated by a panel of 7 expert tasters. Tasters were asked to compare the base (water, 2000 ppm sodium benzoate, 180 ppm Reb-A, 500 ppm citric acid, 850 ppm lemon lime flavor) with the model beverage (water, 2000 ppm sodium Benzoate, 180 ppm Reb-A, 500 ppm citric acid, 850 ppm lemon lime flavor, 4% cellobiose) focusing on the overall quality of sweetness, particularly on the enhancement of the upfront sweetness, overall sweetness intensity.

expert tasters [11] = test: Expert taster comparison, lemon lime beverage (water, sodium benzoate, 180 ppm Reb-A, citric acid) with 4% cellobiose vs base, panel of 8 (Example 12); conditions: 2000 ppm sodium benzoate, 500 ppm citric acid, 850 ppm lemon lime flavor
Protocol: as §3, with “8” for “7”

expert tasters [12] = test: Expert taster comparison, plain zero-fat yoghurt with 180 ppm RebA and 4% cellobiose vs base; conditions: 180 ppm RebA
Protocol: Yoghurt RebA 180 ppm+4% cellobiose
(§4) In a plain zero-fat yoghurt, sweetened with rebaudioside A (180 ppm), cellobiose was tested at 4% for sweetness enhancement. Samples were evaluated by a panel of 6 expert tasters. Tasters were asked to compare the base (plain yoghurt+180 ppm RebA) with the model yoghurt (plain yoghurt, 180 ppm RebA 4% cellobiose) focusing on the overall quality of sweetness.

expert tasters [13] = test: Expert taster comparison, plain zero-fat yoghurt with 90 ppm sucralose and 4% cellobiose vs base; conditions: 90 ppm sucralose
Protocol: as §4, with “sucralose (90” for “rebaudioside A (180”, “yoghurt+90” for “yoghurt+180”, “sucralose)” for “RebA)”, “90” for “180”, “sucralose,” for “RebA”

[14] = Sweetness and mouthfeel equivalence of sucrose + cellobiose solutions to sucrose solutions (general statement)
[15] = 4% cellobiose added to 80 ppm Reb-A in water, vs unaltered 80 ppm Reb-A base

For `OC[C@H]1O[C@@H](O[C@H]2[C@H](O)[C@@H](O)C(O)O[C@@H]2CO)[C@H](O)[C@@H](O)[C@@H]1O` (mixture of isomers) [cellobiose], the “sweetness rated as sweet as sucrose” value ([1]; 4% cellobiose) was 1.25 % sucrose, the “inherent sweetness on its own” value ([1]; 4% cellobiose in water) was “not inherently sweet” and the “overall sweetness intensity relative to sucrose standards” value ([1]; 4% cellobiose in water, r-index analysis, 95% confidence level, p-value<0.05) was < 1.5 % sucrose and > 1.0 % sucrose. For the same molecule, the sweetness enhancement [2] was “sweetness enhancement beyond an additive effect”, the delayed sweetness (trained panelists; [15]) was “significantly decreased” and the lingering sweetness (trained panelists; [15]) was “significantly decreased”. The overall sweetness (trained panelists; [15]) was “significantly increased”, the upfront sweetness (trained panelists; [15]) was “significantly increased” and the upfront sweetness (trained panelists; 80 ppm Reb-A and 4% cellobiose, vs isosweet 150 ppm Reb-A sample) was “significantly increased”. For the same molecule, the “Reb-A aqueous solution of the same sweetness” value (trained panelists; aqueous solution of 80 ppm Reb-A and 4% cellobiose) was 150 ppm Reb-A, the mouthfeel (expert tasters [3]) was “better mouthfeel” and the offnotes (expert tasters [3]) was “decreased offnotes”. For the same molecule, the profile (expert tasters [3]) was “rounded profile”, the sweetness enhancement (expert tasters [3]) was “significant sweetness enhancement” and the upfront sweetness enhancement (expert tasters [3]) was “upfront sweetness enhancement”. The mouthfeel (expert tasters [4]) was “better mouthfeel”, the offnotes (expert tasters [4]) was “decreased offnotes” and the profile (expert tasters [4]) was “rounded profile”. The sweetness enhancement (expert tasters [4]) was “significant sweetness enhancement”, the upfront sweetness enhancement (expert tasters [4]) was “upfront sweetness enhancement” and the profile (expert tasters [5]) was “rounded profile”. For the same molecule, the sweetness enhancement (expert tasters [5]) was “significant sweetness enhancement”, the mouthfeel (expert tasters [6]) was “better mouthfeel” and the profile (expert tasters [6]) was “rounded profile”. The sweetness enhancement (expert tasters [6]) was “significant sweetness enhancement”, the upfront sweetness enhancement (expert tasters [6]) was “upfront sweetness enhancement” and the profile (expert tasters [7]) was “rounded profile”. For the same molecule, the sweetness enhancement (expert tasters [7]) was “significant sweetness enhancement”, the upfront sweetness enhancement (expert tasters [7]) was “upfront sweetness enhancement” and the aroma profile (expert tasters [8]) was “rounded aroma profile”. For the same molecule, the sweetness enhancement (expert tasters [8]) was “significant sweetness enhancement”, the upfront sweetness enhancement (expert tasters [8]) was “upfront sweetness enhancement” and the aroma profile (expert tasters [9]) was “rounded aroma profile”. For the same molecule, the mouthfeel (expert tasters [9]) was “improved mouthfeel”, the sweetness enhancement (expert tasters [9]) was “significant sweetness enhancement” and the upfront sweetness enhancement (expert tasters [9]) was “upfront sweetness enhancement”. The aroma profile (expert tasters [10]) was “rounded aroma profile”, the mouthfeel (expert tasters [10]) was “improved mouthfeel” and the sweetness enhancement (expert tasters [10]) was “significant sweetness enhancement”. The upfront sweetness enhancement (expert tasters [10]) was “upfront sweetness enhancement”, the aroma profile (expert tasters [11]) was “rounded aroma profile” and the mouthfeel (expert tasters [11]) was “improved mouthfeel”. For the same molecule, the sweetness enhancement (expert tasters [11]) was “significant sweetness enhancement”, the upfront sweetness enhancement (expert tasters [11]) was “upfront sweetness enhancement” and the “overall balance and quality of sweetness” value (expert tasters [12]) was “significantly better overall balance and quality of sweetness”. The sweetness (expert tasters [12]) was “much sweeter”, the “balance and quality of sweetness” value (expert tasters [13]) was “significantly improved balance and quality of sweetness” and the sweetness (expert tasters [13]) was “much sweeter”. For the same molecule, the “sucrose solution of similar sweetness and mouthfeel characteristics” value ([14]; solution of 2% sucrose and 4% cellobiose) was roughly 4 % sucrose, the “sucrose solution of very similar taste” value ([14]; solution of 5% sucrose+4% cellobiose) was roughly 7 % sucrose and the “sucrose solution of very similar taste” value ([14]; solution of 7% sucrose+4% cellobiose) was roughly 9 % sucrose.
